We go through one compound from patent publication US11571403B2, “Methods for the treatment of non-alcoholic steatohepatitis” (Eiger Biopharmaceuticals, Inc., priority 2016, dated 2023).

The test system of assay [1] is STAM mouse model for NASH. Briefly: NAFLD Activity Score by HE staining, STAM mouse NASH model (Example 1). It counts as in vivo. The conditions noted are these: telmisartan 10 mg/kg QD, 7 to 9 weeks of age. An excerpt: (§1) The STAM™ mouse is a model for NASH created by a combination of chemical and dietary interventions in C57BL/6 mice that manifest NASH at about 8 weeks, which progresses to fibrosis at about 12 weeks and then progresses to HCC at about 16 weeks. See, Saito et al., Sci. Rep. 2015, 5:12466.
(§2) In the study, the control groups were as follows: (i) Untreated Disease Control—a group of STAM mice injected with streptozotocin (STZ, Sigma-Aldrich, USA) at 2 days old, and fed a high fat diet (HFD, 57 kcal % fat, Cat #HFD32, CLEA Japan, Japan) starting at 4 weeks old; and (ii) Positive Control—a group of STAM mice treated with telmisartan (10 mg/kg QD from 7 to 9 weeks). In addition to these control groups, test groups of STAM mice treated with a low dose of ubenimex (5 mg/kg ubenimex BID from 7 to 9 weeks) or a high dose of ubenimex (25 mg/kg BID from 7 to 9 weeks), were included in the study. The low dose is equivalent to a human dose of 30 mg BID. The high dose is equivalent to a human dose of 150 mg BID. The viability, clinical signs and behavior were monitored daily, including body weight, signs of toxicity, moribundity and mortality. The mice were maintained in a SPF facility under controlled conditions of temperature (23±2° C.), humidity (45±10%), lighting (12-hour artificial light and dark cycles; light from 8:00 to 20:00) and air exchange. A high pressure was maintained in the experimental room to prevent contamination of the facility. The mice were housed in TPX cages (CLEA Japan) with a maximum of 4 mice per case.
(§3) All groups of mice were sacrificed at 9 weeks. Once sacrificed, the body weight of each mouse was recorded. The liver of each mouse was removed and weighed. The liver-to-body weight ratio was determined for each mouse. Blood serum levels of CK-18, ALT, and liver triglycerides were determined for each mouse. The livers were then sectioned and stained with hematoxylin and eosin (“HE”) stain, as well as Sirius red staining, to determine liver steatosis (ballooning) and fibrosis, respectively.

The subject of assay [2] is STAM mouse model for NASH. Briefly: Biochemistry: plasma ALT and liver triglyceride, STAM mouse NASH model (Example 1). The conditions noted are these: telmisartan 10 mg/kg QD, 7 to 9 weeks of age. It counts as in vivo.
Source text: as §1, §2, §3

Assay [3] concerns STAM mouse model for NASH. The assay can be described thus: Fibrosis area by Sirius red staining, STAM mouse NASH model (Example 1). The format is in vivo. Particulars: telmisartan 10 mg/kg QD, 7 to 9 weeks of age.
Source text: as §1, §2, §3

The subject of assay [4] is STAM mouse model for NASH. The assay can be described thus: Plasma CK-18, STAM mouse NASH model (Example 1). Particulars: telmisartan group (10 mg/kg QD, 7 to 9 weeks). It counts as in vivo.
Source text: as §1, §2, §3

Assay [5] relates to STAM model of NASH fibrosis. The assay can be described thus: NAFLD Activity Score by HE staining, STAM model of NASH with fibrosis (Example 3). It counts as in vivo, mouse. Particulars: telmisartan 5 mg/kg QD oral, 6 to 11 weeks of age. Here is the method: (§4) Ubenimex or telmisartan was administered orally in a volume at 10 mL/kg. Ubenimex was administered at a dose of 5 mg/kg once daily or twice daily. Telmisartan was administered at a dose of 5 mg/kg once daily.
For HE staining, sections were cut from paraffin blocks of liver tissue prefixed in Bouin's solution and stained with Lillie-Mayer's hematoxylin (Muto Pure Chemicals Co., Ltd., Japan) and eosin solution (Wako Pure Chemical Industries, Ltd., Japan). NAFLD Activity Score (NAS) was calculated according to the criteria of Kleiner (Kleiner et al., Hepatology, 2005, 41:1313). To visualize collagen deposition, Bouin's fixed liver sections were stained using picro-Sirius red solution (Waldeck, Germany). For quantitative analysis of fibrosis area, bright field images of Sirius red-staining sections were captured around the central vein using a digital camera (DFC295; Leica, Germany) at 200-fold magnification, and the positive areas in 5 fields/section were measured using ImageJ software (National Institutes of Health, USA).
Statistical tests: Statistical analyses were performed using Bonferroni Multiple Comparison Test on GraphPad Prism 6 (GraphPad Software Inc., USA). P values <0.05 were considered statistically significant. A trend or tendency was assumed when a one-tailed t-test returned P values <0.1. Results were expressed as mean±SD.
(§5) Study groups: The following study groups were used. Group 1 (Vehicle): 8 NASH mice were orally administered vehicle (RO water) in a volume of 10 mL/kg twice daily from 6 to 11 weeks of age. Group 2 (Ubenimex QD for 5 weeks): 8 NASH mice were orally administered vehicle supplemented with ubenimex at a dose of 5 mg/kg once daily from 6 to 11 weeks of age. Group 3 (Ubenimex BID for 5 weeks): 8 NASH mice were orally administered vehicle supplemented with ubenimex at a dose of 5 mg/kg twice daily from 6 to 11 weeks of age. Group 4 (Ubenimex BID for 2 weeks): 8 NASH mice were orally administered vehicle supplemented with ubenimex at a dose of 5 mg/kg twice daily from 9 to 11 weeks of age. Group 5 (Telmisartan for 5 weeks): 8 NASH mice were orally administered pure water supplemented with telmisartan at a dose of 5 mg/kg once daily from 6 to 11 weeks of age.

Assay [6] has as its system STAM model of NASH fibrosis. The assay can be described thus: Biochemistry: plasma ALT and liver triglyceride, STAM model of NASH with fibrosis (Example 3). The format is in vivo, mouse. The conditions noted are these: telmisartan 5 mg/kg QD oral, 6 to 11 weeks of age. As to the method:
as §4
For plasma biochemistry, blood was collected in polypropylene tubes with anticoagulant (Novo-Heparin, Mochida Pharmaceutical Co. Ltd., Japan) and centrifuged at 1,000×g for 15 minutes at 4° C. The supernatant was collected and stored at −80° C. until use. Plasma ALT level was measured by FUJI DRI-CHEM 7000 (Fujifilm, Japan).
Liver total lipid-extracts were obtained by Folch's method (Folch et al., J. Biol Chem, 1957, 226:497). Liver samples were homogenized in chloroform-methanol (2:1 v/v) and incubated overnight at room temperature. After washing with chloroform-methanol-water (8:4:3 v/v/v), the extracts were evaporated to dryness and dissolved in isopropanol. Liver triglyceride content was measured by Triglyceride E-test (Wako Pure Chemical Industries, Ltd., Japan).
as §5

For the compound `CCCc1nc2c(C)cc(-c3nc4ccccc4n3C)cc2n1Cc1ccc(-c2ccccc2C(=O)O)cc1` [Telmisartan, telmisartan], the “Steatosis score 0, number of mice” value worked out at 3 in assay [1] (score 0 = <5%) and 1 in assay [5] (score 0 = <5%). Further, the “Hepatocyte ballooning score 0, number of mice” value in assay [1] (score 0 = None) worked out at 8; in assay [5] (score 0 = None), 3. The “Steatosis score 1, number of mice” value in assay [1] (score 1 = 5-33%) and in assay [5] (score 1 = 5-33%) was 5 each time. Further, in assay [1] (score 1 = <2 foci/200x), the “Lobular inflammation score 1, number of mice” value was 2. Also, the “Lobular inflammation score 2, number of mice” value in assay [1] (score 2 = 2-4 foci/200x) amounted to 4; in assay [5] (score 2 = 2-4 foci/200x) it was 3. The “Lobular inflammation score 3, number of mice” value in assay [1] (score 3 = >4 foci/200x) and in assay [5] (score 3 = >4 foci/200x) was 2 in each case. Further, the “NAS (mean ± SD)” value in assay [1] was 2.6 + 0.9; in assay [5], 3.3 ± 1.0. Moreover, the “Liver triglyercide (mean ± SD)” value in assay [2] turned out to be 22.4 ± 7.5 mg/g liver. Moreover, the entries for the “Plasma ALT (mean ± SD)” value in assay [2] and in assay [6] were 44 ± 13 U/L and 36 ± 11 U/L, respectively. The “Sirius red-positive area (fibrosis area, mean ± SD)” value in assay [3] came to 0.71 ± 0.15%. The “Plasma CK-18” value in assay [4] came out at 284.5±38.4 mIU/mL. The “Lobular inflammation score 0, number of mice” value in assay [5] (score 0 = No foci) stood at 1. Moreover, the “Hepatocyte ballooning score 1, number of mice” value in assay [5] (score 1 = Few balloon cells) is 3. Further, in assay [6], the “Liver triglyceride (mean ± SD)” value is 24.6 ± 8.4 mg/g liver.
